# Activity calls are given as the source filed them. The calls are words filed in the database; no cut-off is given here.
# Key:
# [1] = tested on: Aspergillus niger; assay: Antifungal activity against Aspergillus niger assessed as growth inhibition after 24 to 72 hr by serial dilution method; type: functional
# [2] = tested on: Mycobacterium; assay: Antibacterial activity against Mycobacterium luteum B-917 assessed as growth inhibition at 0.1% after 24 hr by agar disk diffusion method; type: functional
# [3] = tested on: Aspergillus niger; assay: Antifungal activity against Aspergillus niger assessed as growth inhibition at 0.1% after 48 to 72 hr by agar disk diffusion method; type: functional
# [4] = tested on: Mycobacterium; assay: Antibacterial activity against Mycobacterium luteum B-917 assessed as growth inhibition after 24 to 72 hr by serial dilution method; type: functional
# [5] = tested on: Aspergillus niger; assay: Antifungal activity against Aspergillus niger assessed as growth inhibition at 0.5% after 48 to 72 hr by agar disk diffusion method; type: functional
# [6] = tested on: Yamadazyma tenuis; assay: Antifungal activity against Candida tenuis assessed as growth inhibition after 24 to 72 hr by serial dilution method; type: functional
# [7] = tested on: Escherichia coli; assay: Antibacterial activity against Escherichia coli B 906 assessed as growth inhibition at 0.5% after 24 hr by agar disk diffusion method; type: functional
# [8] = tested on: Mycobacterium; assay: Antibacterial activity against Mycobacterium luteum B-917 assessed as growth inhibition at 0.5% after 24 hr by agar disk diffusion method; type: functional
# [9] = tested on: Escherichia coli; assay: Antibacterial activity against Escherichia coli B 906 assessed as growth inhibition after 24 to 72 hr by serial dilution method; type: functional, organism-based
# [10] = tested on: Yamadazyma tenuis; assay: Antifungal activity against Candida tenuis assessed as growth inhibition at 0.5% after 48 to 72 hr by agar disk diffusion method; type: functional
# [11] = tested on: Escherichia coli; assay: Antibacterial activity against Escherichia coli B 906 assessed as growth inhibition at 0.1% after 24 hr by agar disk diffusion method; type: functional
# [12] = tested on: Staphylococcus aureus; assay: Antibacterial activity against Staphylococcus aureus 209-P assessed as growth inhibition after 24 to 72 hr by serial dilution method; type: functional
# [13] = tested on: Staphylococcus aureus; assay: Antibacterial activity against Staphylococcus aureus 209-P assessed as growth inhibition at 0.1% after 24 hr by agar disk diffusion method; type: functional
# [14] = tested on: Yamadazyma tenuis; assay: Antifungal activity against Candida tenuis assessed as growth inhibition at 0.1% after 48 to 72 hr by agar disk diffusion method; type: functional
# [15] = tested on: Staphylococcus aureus; assay: Antibacterial activity against Staphylococcus aureus 209-P assessed as growth inhibition at 0.5% after 24 hr by agar disk diffusion method; type: functional
Compound,MIC [1],MIC [4],MIC [6],MIC [9],MIC [12],diameter of the inhibition zone (DIZ) [2],diameter of the inhibition zone (DIZ) [3],diameter of the inhibition zone (DIZ) [5],diameter of the inhibition zone (DIZ) [7],diameter of the inhibition zone (DIZ) [8],diameter of the inhibition zone (DIZ) [10],diameter of the inhibition zone (DIZ) [11],diameter of the inhibition zone (DIZ) [13],diameter of the inhibition zone (DIZ) [14],diameter of the inhibition zone (DIZ) [15]
O=C1C(SCc2ccc(Cl)cc2)=C(N2CCOCC2)C(=O)c2ccccc21,inactive,inactive,inactive,inactive,inactive,7 mm,0 mm,0 mm,0 mm,8 mm,0 mm,0 mm,0 mm,0 mm,0 mm
O=C1C(Cl)=C(N2CCC(C(O)(c3ccccc3)c3ccccc3)CC2)C(=O)c2ccccc21,inactive,inactive,inactive,inactive,inactive,7.5 mm,0 mm,0 mm,0 mm,9 mm,0 mm,0 mm,0 mm,0 mm,0 mm
O=C1C(Cl)=C(Sc2c(Cl)c(Cl)c(Cl)c(Cl)c2Cl)C(=O)c2ccccc21,250 µg/mL,inactive,125 µg/mL,inactive,inactive,0 mm,0 mm,0 mm,0 mm,0 mm,0 mm,0 mm,0 mm,0 mm,0 mm

# Continued, in another order:
MIC [1],MIC [4],MIC [6],MIC [9],MIC [12],Compound,diameter of the inhibition zone (DIZ) [2],diameter of the inhibition zone (DIZ) [3],diameter of the inhibition zone (DIZ) [5],diameter of the inhibition zone (DIZ) [7],diameter of the inhibition zone (DIZ) [8],diameter of the inhibition zone (DIZ) [10],diameter of the inhibition zone (DIZ) [11],diameter of the inhibition zone (DIZ) [13],diameter of the inhibition zone (DIZ) [14],diameter of the inhibition zone (DIZ) [15]
7.8 µg/mL,250 µg/mL,7.8 µg/mL,inactive,125 µg/mL,O=C1C(Sc2ccc(O)cc2)=C(Sc2ccc(O)cc2)C(=O)c2ccccc21,7 mm,0 mm,8 mm,0 mm,12.7 mm,0 mm,0 mm,6 mm,0 mm,9.7 mm
31.2 µg/mL,125 µg/mL,7.8 µg/mL,inactive,inactive,O=C1C(SCc2ccc(Cl)cc2)=C(N2CCSCC2)C(=O)c2ccccc21,7 mm,0 mm,0 mm,0 mm,13.4 mm,0 mm,0 mm,0 mm,0 mm,0 mm
15.6 µg/mL,125 µg/mL,7.8 µg/mL,inactive,250 µg/mL,O=C1C(SCc2ccc(Cl)cc2)=C(N2CCCC2)C(=O)c2ccccc21,8.7 mm,0 mm,0 mm,0 mm,14.4 mm,0 mm,0 mm,0 mm,0 mm,0 mm
15.6 µg/mL,7.8 µg/mL,15.6 µg/mL,inactive,250 µg/mL,COC(=O)CCSC1=C(SCCC(=O)OC)C(=O)c2ccccc2C1=O,15.4 mm,12.4 mm,14.7 mm,0 mm,19.7 mm,15 mm,0 mm,10 mm,10 mm,13.4 mm
